Results as given in ChEMBL document CHEMBL3217498, “Structure and antimicrobial properties of multivalent short peptides” (Medchemcomm, 2011).
In brackets after ≈: the same amount, converted by molar mass. Activity calls are given as the source filed them. The rule behind the calls is not given here. Non-standard residues stand in square brackets, D forms with d. Residues, ends and D or L forms follow the SMILES beside them. Groups on a side chain read outwards from the residue. *: point of attachment. Lys(α,ε-(ArgTrp)2) = N=C(N)NCCC[C@H](N)C(=O)N[C@@H](Cc1c[nH]c2ccccc12)C(=O)NCCCC[C@H](NC(=O)[C@H](Cc1c[nH]c2ccccc12)NC(=O)[C@@H](N)CCCNC(=N)N)C(=O)*; βAla = NCCC(=O)O

How the values were obtained:
[1] = system: Escherichia coli; assay: Antibacterial activity against ampicillin and streptomycin-resistant Escherichia coli D31 assessed as growth inhibition after 18 hrs by standard broth microdilution assay; assay type: functional, organism-based; details: D31, 18 h
[2] = Induction of hemolysis in sheep erythrocytes after 60 mins by spectrophotometer analysis; assay type: cell-based, Ovis aries, Erythrocyte; details: read-out: HD50
[3] = system: Staphylococcus aureus; assay: Antibacterial activity against multidrug-resistant Staphylococcus aureus ATCC BAA-44 assessed as growth inhibition after 18 hrs by standard broth microdilution assay; assay type: functional, organism-based; details: ATCC BAA-44, 18 h
[4] = system: Acinetobacter baumannii; assay: Antibacterial activity against multidrug-resistant Acinetobacter baumannii ATCC BAA-747 assessed as growth inhibition after 18 hrs by standard broth microdilution assay; assay type: functional, organism-based; details: ATCC BAA-747, 18 h
[5] = system: Staphylococcus aureus; assay: Antibacterial activity against multidrug-resistant Staphylococcus aureus ATCC BAA-44 assessed as growth inhibition measured over 400 generation period by standard broth microdilution assay; assay type: functional, organism-based
[6] = system: Escherichia coli; assay: Antibacterial activity against ampicillin and streptomycin-resistant Escherichia coli D31 assessed as growth inhibition measured over 400 generation period by standard broth microdilution assay; assay type: functional, organism-based
[7] = system: Acinetobacter baumannii; assay: Antibacterial activity against multidrug-resistant Acinetobacter baumannii ATCC BAA-747 assessed as growth inhibition measured over 400 generation period by standard broth microdilution assay; assay type: functional, organism-based
[8] = Ratio of compound hemolytic index to indolicidin hemolytic index for ratio of HD50 for sheep erythrocytes to IC50 for Staphylococcus aureus ATCC BAA-44
[9] = Ratio of compound hemolytic index to indolicidin hemolytic index for ratio of HD50 for sheep erythrocytes to IC50 for Escherichia coli D31
[10] = system: Escherichia coli; assay: Antibacterial activity against ampicillin and streptomycin-resistant Escherichia coli D31 assessed as growth inhibition measured over 400 generation period by standard broth microdilution assay relative to 50% growth inhibition after first day; assay type: functional
[11] = system: Acinetobacter baumannii; assay: Antibacterial activity against multidrug-resistant Acinetobacter baumannii ATCC BAA-747 assessed as growth inhibition measured over 400 generation period by standard broth microdilution assay relative to 50% growth inhibition after first day; assay type: functional
[12] = system: Staphylococcus aureus; assay: Antibacterial activity against multidrug-resistant Staphylococcus aureus ATCC BAA-44 assessed as growth inhibition measured over 400 generation period by standard broth microdilution assay relative to 50% growth inhibition after first day; assay type: functional

Molecule	IC50 [1]	HC50 at 1 h [2]	IC50 [3]	IC50 [4]	further results
N=C(N)NCCC[C@H](N)C(=O)N[C@@H](Cc1c[nH]c2ccccc12)C(=O)NCCCC[C@H](NC(=O)[C@H](Cc1c[nH]c2ccccc12)NC(=O)[C@@H](N)CCCNC(=N)N)C(=O)NCCCC[C@H](NC(=O)[C@H](CCCCNC(=O)[C@H](Cc1c[nH]c2ccccc12)NC(=O)[C@@H](N)CCCNC(=N)N)NC(=O)[C@H](Cc1c[nH]c2ccccc12)NC(=O)[C@@H](N)CCCNC(=N)N)C(=O)NCCC(N)=O (H-RWK([Trp-Arg])K(Lys(α,ε-(ArgTrp)2))[βAla]-NH2)	3.9 µg/mL (≈ 2.12 µM)	1960 µg/mL	15 µg/mL (≈ 8.14 µM)	42 µg/mL (≈ 22.8 µM)	growth inhibition (GI) [5]: Active; growth inhibition (GI) [6]: Active; growth inhibition (GI) [7]: Active; Ratio [8]: 5; Ratio [9]: 10
GENTAMICIN	–	–	–	–	fold change (FC) [10]: 13; fold change (FC) [11]: 8
N=C(N)NCCC[C@H](NC(=O)[C@H](Cc1c[nH]c2ccccc12)NC(=O)[C@@H](N)CCCNC(=N)N)C(=O)N[C@@H](Cc1c[nH]c2ccccc12)C(=O)NCCCC[C@H](NC(=O)[C@H](Cc1c[nH]c2ccccc12)NC(=O)[C@H](CCCNC(=N)N)NC(=O)[C@H](Cc1c[nH]c2ccccc12)NC(=O)[C@@H](N)CCCNC(=N)N)C(=O)NCCCC[C@H](NC(=O)[C@H](CCCCNC(=O)[C@H](Cc1c[nH]c2ccccc12)NC(=O)[C@H](CCCNC(=N)N)NC(=O)[C@H](Cc1c[nH]c2ccccc12)NC(=O)[C@@H](N)CCCNC(=N)N)NC(=O)[C@H](Cc1c[nH]c2ccccc12)NC(=O)[C@H](CCCNC(=N)N)NC(=O)[C@H](Cc1c[nH]c2ccccc12)NC(=O)[C@@H](N)CCCNC(=N)N)C(=O)NCCC(N)=O (HELM PEPTIDE1{R.W.R.W.K.K.[bAla].[am]}|PEPTIDE2{R.W.R.W}|PEPTIDE3{R.W.R.W.K}|PEPTIDE4{R.W.R.W}$PEPTIDE1,PEPTIDE2,5:R3-4:R2|PEPTIDE3,PEPTIDE4,5:R3-4:R2|PEPTIDE1,PEPTIDE3,6:R3-5:R2$$$V2.0)	16.4 µg/mL (≈ 5.11 µM)	131 µg/mL	23.6 µg/mL (≈ 7.35 µM)	–	–
NCCCC[C@H](N)C(=O)N[C@@H](Cc1c[nH]c2ccccc12)C(=O)NCCCC[C@H](NC(=O)[C@H](Cc1c[nH]c2ccccc12)NC(=O)[C@@H](N)CCCCN)C(=O)NCCCC[C@H](NC(=O)[C@H](CCCCNC(=O)[C@H](Cc1c[nH]c2ccccc12)NC(=O)[C@@H](N)CCCCN)NC(=O)[C@H](Cc1c[nH]c2ccccc12)NC(=O)[C@@H](N)CCCCN)C(=O)NCCC(N)=O	30.6 µg/mL (≈ 17.7 µM)	1460 µg/mL	23.3 µg/mL (≈ 13.5 µM)	52 µg/mL (≈ 30.1 µM)	–
O=C(O)c1cn(C2CC2)c2cc(N3CCNCC3)c(F)cc2c1=O [CIPROFLOXACIN]	–	–	–	–	fold change (FC) [11]: 43
NCCCC[C@H](N)C(=O)N[C@@H](Cc1ccc(O)cc1)C(=O)NCCCC[C@H](NC(=O)[C@H](Cc1ccc(O)cc1)NC(=O)[C@@H](N)CCCCN)C(=O)NCCCC[C@H](NC(=O)[C@H](CCCCNC(=O)[C@H](Cc1ccc(O)cc1)NC(=O)[C@@H](N)CCCCN)NC(=O)[C@H](Cc1ccc(O)cc1)NC(=O)[C@@H](N)CCCCN)C(=O)NCCC(N)=O	84.4 µg/mL (≈ 51.5 µM)	3740 µg/mL	240 µg/mL (≈ 147 µM)	360 µg/mL (≈ 220 µM)	–
N=C(N)NCCC[C@H](N)C(=O)N[C@@H](Cc1ccccc1)C(=O)NCCCC[C@H](NC(=O)[C@H](Cc1ccccc1)NC(=O)[C@@H](N)CCCNC(=N)N)C(=O)NCCCC[C@H](NC(=O)[C@H](CCCCNC(=O)[C@H](Cc1ccccc1)NC(=O)[C@@H](N)CCCNC(=N)N)NC(=O)[C@H](Cc1ccccc1)NC(=O)[C@@H](N)CCCNC(=N)N)C(=O)NCCC(N)=O	30 µg/mL (≈ 17.8 µM)	2780 µg/mL	180 µg/mL (≈ 107 µM)	160 µg/mL (≈ 94.9 µM)	–
CN[C@H](CC(C)C)C(=O)N[C@H]1C(=O)N[C@@H](CC(N)=O)C(=O)N[C@H]2C(=O)N[C@H]3C(=O)N[C@H](C(=O)N[C@H](C(=O)O)c4cc(O)cc(O)c4-c4cc3ccc4O)[C@H](O)c3ccc(c(Cl)c3)Oc3cc2cc(c3O[C@@H]2O[C@H](CO)[C@@H](O)[C@H](O)[C@H]2O[C@H]2C[C@](C)(N)[C@H](O)[C@H](C)O2)Oc2ccc(cc2Cl)[C@H]1O [VANCOMYCIN]	–	–	–	–	fold change (FC) [12]: 2.5
CC[C@H](C)[C@H](NC(C)=O)C(=O)N[C@@H](CC(C)C)C(=O)N1CCC[C@H]1C(=O)N[C@@H](Cc1c[nH]c2ccccc12)C(=O)N[C@@H](CCCCN)C(=O)N[C@@H](Cc1c[nH]c2ccccc12)C(=O)N1CCC[C@H]1C(=O)N[C@@H](Cc1c[nH]c2ccccc12)C(=O)N[C@@H](Cc1c[nH]c2ccccc12)C(=O)N1CCC[C@H]1C(=O)N[C@@H](Cc1c[nH]c2ccccc12)C(=O)N[C@@H](CCCNC(=N)N)C(=O)N[C@@H](CCCNC(=N)N)C(N)=O	–	–	–	–	growth inhibition (GI) [5]: Active; growth inhibition (GI) [6]: Active; growth inhibition (GI) [7]: Active
NC(=O)CCNC(=O)[C@H](CCCCNC(=O)[C@H](CCCCNC(=O)[C@H](Cc1c[nH]c2ccccc12)NC(=O)[C@@H](N)Cc1cnc[nH]1)NC(=O)[C@H](Cc1c[nH]c2ccccc12)NC(=O)[C@@H](N)Cc1cnc[nH]1)NC(=O)[C@H](CCCCNC(=O)[C@H](Cc1c[nH]c2ccccc12)NC(=O)[C@@H](N)Cc1cnc[nH]1)NC(=O)[C@H](Cc1c[nH]c2ccccc12)NC(=O)[C@@H](N)Cc1cnc[nH]1	30.6 µg/mL (≈ 17.3 µM)	1860 µg/mL	43.3 µg/mL (≈ 24.5 µM)	82.7 µg/mL (≈ 46.8 µM)	–
NCCCC[C@H](N)C(=O)N[C@@H](Cc1ccccc1)C(=O)NCCCC[C@H](NC(=O)[C@H](Cc1ccccc1)NC(=O)[C@@H](N)CCCCN)C(=O)NCCCC[C@H](NC(=O)[C@H](CCCCNC(=O)[C@H](Cc1ccccc1)NC(=O)[C@@H](N)CCCCN)NC(=O)[C@H](Cc1ccccc1)NC(=O)[C@@H](N)CCCCN)C(=O)NCCC(N)=O	77 µg/mL (≈ 48.9 µM)	2500 µg/mL	145 µg/mL (≈ 92.1 µM)	175 µg/mL (≈ 111 µM)	–
N=C(NCCCCCCNC(=N)NC(=N)Nc1ccc(Cl)cc1)NC(=N)Nc1ccc(Cl)cc1 [CHLORHEXIDINE]	–	–	–	–	fold change (FC) [12]: 2.5; fold change (FC) [10]: 5
N=C(N)NCCC[C@H](NC(=O)[C@H](Cc1c[nH]c2ccccc12)NC(=O)[C@H](CCCNC(=N)N)NC(=O)[C@H](Cc1c[nH]c2ccccc12)NC(=O)[C@H](CCCNC(=N)N)NC(=O)[C@H](Cc1c[nH]c2ccccc12)NC(=O)[C@@H](N)CCCNC(=N)N)C(=O)N[C@@H](Cc1c[nH]c2ccccc12)C(=O)O (H-RWRWRWRW-OH)	–	–	–	–	growth inhibition (GI) [5]: Active; growth inhibition (GI) [6]: Active; growth inhibition (GI) [7]: Active
N=C(N)NCCC[C@H](NC(=O)[C@H](Cc1c[nH]c2ccccc12)NC(=O)[C@H](CCCNC(=N)N)NC(=O)[C@H](Cc1c[nH]c2ccccc12)NC(=O)[C@@H](N)CCCNC(=N)N)C(=O)N[C@@H](Cc1c[nH]c2ccccc12)C(=O)NCCCC[C@H](NC(=O)[C@H](Cc1c[nH]c2ccccc12)NC(=O)[C@H](CCCNC(=N)N)NC(=O)[C@H](Cc1c[nH]c2ccccc12)NC(=O)[C@H](CCCNC(=N)N)NC(=O)[C@H](Cc1c[nH]c2ccccc12)NC(=O)[C@@H](N)CCCNC(=N)N)C(=O)NCCCC[C@H](NC(=O)[C@H](CCCCNC(=O)[C@H](Cc1c[nH]c2ccccc12)NC(=O)[C@H](CCCNC(=N)N)NC(=O)[C@H](Cc1c[nH]c2ccccc12)NC(=O)[C@H](CCCNC(=N)N)NC(=O)[C@H](Cc1c[nH]c2ccccc12)NC(=O)[C@@H](N)CCCNC(=N)N)NC(=O)[C@H](Cc1c[nH]c2ccccc12)NC(=O)[C@H](CCCNC(=N)N)NC(=O)[C@H](Cc1c[nH]c2ccccc12)NC(=O)[C@H](CCCNC(=N)N)NC(=O)[C@H](Cc1c[nH]c2ccccc12)NC(=O)[C@@H](N)CCCNC(=N)N)C(=O)NCCC(N)=O (HELM PEPTIDE1{R.W.R.W.R.W.K.K.[bAla].[am]}|PEPTIDE2{R.W.R.W.R.W.K}|PEPTIDE3{R.W.R.W.R.W}|PEPTIDE4{R.W.R.W.R.W}$PEPTIDE1,PEPTIDE4,7:R3-6:R2|PEPTIDE1,PEPTIDE2,8:R3-7:R2|PEPTIDE2,PEPTIDE3,7:R3-6:R2$$$V2.0)	20.8 µg/mL (≈ 4.54 µM)	365 µg/mL	31.7 µg/mL (≈ 6.92 µM)	–	–
N=C(N)NCCC[C@H](N)C(=O)N[C@@H](Cc1ccc(O)cc1)C(=O)NCCCC[C@H](NC(=O)[C@H](Cc1ccc(O)cc1)NC(=O)[C@@H](N)CCCNC(=N)N)C(=O)NCCCC[C@H](NC(=O)[C@H](CCCCNC(=O)[C@H](Cc1ccc(O)cc1)NC(=O)[C@@H](N)CCCNC(=N)N)NC(=O)[C@H](Cc1ccc(O)cc1)NC(=O)[C@@H](N)CCCNC(=N)N)C(=O)NCCC(N)=O	12.6 µg/mL (≈ 7.2 µM)	2150 µg/mL	45.7 µg/mL (≈ 26.1 µM)	193 µg/mL (≈ 110 µM)	–
